The target in test [1] is Human indoleamine 2,3-dioxygenase1 (hIDO1) (Homo sapiens (Human), UniProt P14902). Briefly: In-vitro IDO1 enzyme assay (conversion of L-tryptophan to KYN). The test is classed as biochemical. The settings on record: read-out: IC50 (IDO1) Enz. Put shortly:
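Kynurenine formation quantified by HPLC absorbance at 360 nm or LC/MS/MS after TCA quench and 15 min at 65 °C. Reaction: 10 nM N-His hIDO1, 30 μM tryptophan, ascorbate/methylene blue/catalase, pH 6.5 phosphate buffer, 37 °C for 30 min. Inhibition relative to 1% DMSO vehicle, fitted to IC50.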

The target in test [2] is IDO1 in HeLa cells (Homo sapiens (Human), UniProt P14902). As to the kind of experiment: HeLa cell based IDO1 assay (IFNγ-induced, KYN in supernatant). In a few lines:
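Kynurenine in the supernatant, quantified by C-18 HPLC with 360 nm absorbance after TCA hydrolysis (65 °C, 15 min), was the read-out. Compounds (typically 10 μM to 1 nM) were added in HBSS containing 80 μM tryptophan to HeLa cells pre-induced overnight with 50 ng/mL IFNγ. IC50 came from nonlinear fits of % inhibition versus 1% DMSO vehicle.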

Test [3] concerns the target Human TDO (hTDO)-transfected CHO-K1 cells (Homo sapiens (Human), UniProt P48775). Briefly: CHO-K1 cell based TDO assay. The following applies: hTDO cellular assay. In a few lines: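 Kynurenine output was read by LC/MS/MS after TCA precipitation and 15 min at 65° C. Before that, CHO-K1 cells stably carrying human TDO2 were incubated 2 h with compounds (typically 31 μM to 10 nM) and 80 μM L-tryptophan in HBSS. Decrease versus DMSO vehicle gave percent inhibition, then IC50.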

The subject of test [4] is CT-26 tumor cells. Briefly: Antitumor activity in syngeneic CT26/Balb/C tumor model. The settings on record: 60 mg/kg oral BID, vs control animals. Type of test: in vivo, Balb/c mice. The protocol: Tumor volume reduction by the test compounds was evaluated in a syngeneic CT26/Balb/C tumor model as described below. Balb/c mice were purchased from Vivo Bio Tech, Hyderabad, India, and housed in sterile conditions using an individually ventilated caging system manufactured by Citizen Industries Limited, Ahmedabad, India. Mice were quarantined for at least 7 days before experimentation.
Mouse colorectal tumor forming cells, CT-26 cells (ATCC, USA), were cultured in DMEM and 10% FBS medium supplemented with lx non-essential amino acid (HiMedia) in an incubator maintained at 37QC with 95% humidity and 5% CO2. One million (1×10^6) live syngeneic CT-26 cells suspended in 0.2 ml of […] were injected subcutaneously in the right flank of each Balb/c mouse (age 6-8 weeks, weight: about 18-20 g) on day 1 under anesthesia. Eight to ten mice were used per experimental group. Subcutaneous cells formed localized tumors. Animals were visually inspected twice a day. Tumor measurements were initiated 7 days post injection using Vernier calipers. Tumor sizes at day 7 ranged typically from 80-150 mm^3. Tumor dimensions were subsequently measured every 3 to 4 days and tumor volume was determined. Assuming tumors to be ellipsoid, tumor volume was calculated using the formula: V=(D×d×d)/2
Where D is longest diameter in mm, and d is shortest diameter in mm.
When the average tumor volume in the mice reached 100-120 mm^3, tumor bearing mice were randomized for treatment with either test compound or vehicle alone. Test compounds were formulated generally in normal saline comprising Polyethylene Glycol (PEG400), Propylene glycol (PG) and Dimethyl Acetamide (DACM) at pH 4.5-5.0 and dosed orally at ranges 40-75 mg/kg (dose volume—5 mL/kg) twice a day. Solutions of the compounds were prepared immediately before dosing the animals. In general, tumor volume was measured at various times post-dosing from day 1 to day 34.
A non-limiting example is provided. Tumor bearing mice were dosed orally twice a day at 40 mg/kg body weight with either vehicle control or test compound 2 formulated in 30% Polyethylene Glycol (PEG-400), 20% Propylene glycol (PG) in normal saline. Tumors were measured and tumor volumes were determined at 1, 4, 6, 9, 11, and 14 days after the first dose as described above. Animals were sacrificed on day 14. Tumor and blood samples were harvested for further analysis. Just prior to animal sacrifice, blood was drawn retro-orbitally into a tube containing 0.2% EDTA for plasma collection. The harvested tumors were weighed and snap frozen in liquid nitrogen immediately. Plasma KYN concentrations are measured for pharmacokinetic analysis using LC/MS/MS using an API4000 mass spectrometer (Applied Biosystems) coupled to a Shimadzu Prominence LC system fitted with a C18 column.

This is an account of results in US10294212B2 (CURADEV PHARMA PRIVATE LTD., priority 2013, dated 2019).

Sequence of Human TDO (hTDO)-transfected CHO-K1 cells (P48775 whole entry): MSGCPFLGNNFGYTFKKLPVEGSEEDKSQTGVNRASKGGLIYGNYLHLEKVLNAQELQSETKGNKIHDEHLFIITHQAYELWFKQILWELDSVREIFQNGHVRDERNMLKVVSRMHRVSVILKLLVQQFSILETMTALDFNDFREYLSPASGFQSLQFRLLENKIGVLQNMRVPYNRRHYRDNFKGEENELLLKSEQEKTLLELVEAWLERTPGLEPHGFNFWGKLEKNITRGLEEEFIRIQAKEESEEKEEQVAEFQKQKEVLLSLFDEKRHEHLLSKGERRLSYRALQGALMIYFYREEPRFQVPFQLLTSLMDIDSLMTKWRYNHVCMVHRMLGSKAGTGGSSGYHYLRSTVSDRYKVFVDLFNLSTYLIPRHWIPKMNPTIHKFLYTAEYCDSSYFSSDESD
Sequence of IDO1 in HeLa cells (P14902 whole entry): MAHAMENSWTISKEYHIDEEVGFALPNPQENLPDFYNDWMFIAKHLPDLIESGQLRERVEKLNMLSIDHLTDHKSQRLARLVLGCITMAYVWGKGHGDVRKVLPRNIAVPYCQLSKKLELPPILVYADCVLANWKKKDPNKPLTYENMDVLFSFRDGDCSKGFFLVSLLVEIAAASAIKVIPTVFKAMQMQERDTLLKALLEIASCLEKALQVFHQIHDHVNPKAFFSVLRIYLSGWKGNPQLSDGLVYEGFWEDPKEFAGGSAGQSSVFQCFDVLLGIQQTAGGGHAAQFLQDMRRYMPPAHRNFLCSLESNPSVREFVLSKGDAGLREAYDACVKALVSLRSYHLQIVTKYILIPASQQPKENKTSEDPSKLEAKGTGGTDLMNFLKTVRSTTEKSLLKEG
Sequence of Human indoleamine 2,3-dioxygenase1 (hIDO1) (P14902 whole entry): as above

For the compound `Nc1oc2c(Cl)nccc2c1Nc1ccc(F)c(Cl)c1` [Compound 166, 7-Chloro-N3-(3-chloro-4-fluorophenyl)furo[2,3-c]pyridine-2,3-diamine], the IC50 (in general, the concentration needed to halve the response being measured) in test [1] was less than 200 nM; in test [2], less than 200 nM; in test [3] it was less than 500 nM. In addition, the “reduction of tumor growth” value in test [4] is 26%-38.
On to `Cc1cc(-c2nccc3c(Nc4cc(Cl)ccc4F)c(N)oc23)ccn1` [Compound 263, N^3-(5-Chloro-2-fluorophenyl)-7-(2-methylpyridin-4-yl)furo[2,3-c]pyridine-2,3-diamine], for which the half-maximal inhibitory concentration (IC50) in test [1] was less than 200 nM; in test [2] it was less than 200 nM; in test [3] it was more than 2000 nM.
On to `Cc1cc(-c2nccc3c(Nc4cccc(Cl)c4F)c(N)oc23)ccn1` [Compound 264, N^3-(3-Chloro-2-fluorophenyl)-7-(2-methylpyridin-4-yl)furo[2,3-c]pyridine-2,3-diamine], for which the IC50 in test [1] was 200 to 1000 nM; in test [2] it was less than 200 nM; in test [3], more than 2000 nM.
On the same counts, the results for `Cc1cc(-c2nc(C)cc3c(Nc4ccc(F)c(Cl)c4)c(N)oc23)ccn1` [Compound 267, N^3-(3-Chloro-4-fluorophenyl)-5-methyl-7-(2-methylpyridin-4-yl)furo[2,3-c]pyridine-2,3-diamine] are less than 200 nM, less than 200 nM and more than 2000 nM.
On the same counts, the results for `Nc1oc2c(-c3ccnc(C(F)(F)F)c3)nccc2c1Nc1ccc(F)c(Cl)c1` [Compound 268, N^3-(3-Chloro-4-fluorophenyl)-7-(2-(trifluoromethyl)pyridin-4-yl)furo[2,3-c]pyridine-2,3-diamine] are less than 200 nM, less than 200 nM and more than 2000 nM.
For the compound `CCOC(=O)Nc1oc2c(-c3ccnc(C)c3)nccc2c1N(C(=O)OCC)c1ccc(F)c(Cl)c1` [Compound 269, Ethyl (3-chloro-4-fluorophenyl)(2-((ethoxycarbonyl)amino)-7-(2-methylpyridin-4-yl)furo[2,3-c]pyridin-3-yl)carbamate], the half-inhibitory concentration (IC50) in test [1] is more than 1000 nM; in test [2], more than 1000 nM; in test [3], more than 2000 nM.
As for `Nc1oc2c(-c3ccnc(C(=O)N4CCCCC4)c3)nccc2c1Nc1ccc(F)c(Cl)c1` [Compound 271, (4-(2-Amino-3-((3-chloro-4-fluorophenyl)amino)furo[2,3-c]pyridin-7-yl)pyridin-2-yl)(piperidin-1-yl)methanone], the IC50 was less than 200 nM in test [1], less than 200 nM in test [2] and 500 to 2000 nM in test [3].
Regarding `Nc1oc2c(-c3ccnc(C(=O)N4CCOCC4)c3)nccc2c1Nc1ccc(F)c(Cl)c1` [Compound 272, (4-(2-Amino-3-((3-chloro-4-fluorophenyl)amino)furo[2,3-c]pyridin-7-yl)pyridin-2-yl)(morpholino)methanone], the IC50 in test [1] was less than 200 nM; in test [2] it was less than 200 nM; in test [3] it was 500 to 2000 nM.
On to `Nc1oc2c(-c3ccnc(C(=O)Nc4ccccn4)c3)nccc2c1Nc1ccc(F)c(Cl)c1` [Compound 273, 4-(2-Amino-3-((3-chloro-4-fluorophenyl)amino)furo[2,3-c]pyridin-7-yl)-N-(pyridin-2-yl)picolinamide], for which the figures for the IC50 in test [1], in test [2] and in test [3] were less than 200 nM, less than 200 nM and more than 2000 nM, respectively.
For the compound `Nc1oc2c(-c3ccnc(C(=O)NCCN4CCOCC4)c3)nccc2c1Nc1ccc(F)c(Cl)c1` [Compound 274, 4-(2-Amino-3-((3-chloro-4-fluorophenyl)amino)furo[2,3-c]pyridin-7-yl)-N-(2-morpholinoethyl)picolinamide], the values for the IC50 in test [1], in test [2] and in test [3] were less than 200 nM, less than 200 nM and 500 to 2000 nM, respectively.
For `CCCCCNC(=O)c1cc(-c2nccc3c(Nc4ccc(F)c(Cl)c4)c(N)oc23)ccn1` [Compound 275, 4-(2-Amino-3-((3-chloro-4-fluorophenyl)amino)furo[2,3-c]pyridin-7-yl)-N-pentylpicolinamide], the IC50 in test [1] was less than 200 nM; in test [2], 200 to 1000 nM; in test [3], more than 2000 nM.
On the same counts, the results for `Nc1oc2c(-c3cc(F)ccc3Cl)nccc2c1Nc1ccc(F)c(Cl)c1` [Compound 276, N^3-(3-Chloro-4-fluorophenyl)-7-(2-chloro-5-fluorophenyl)furo[2,3-c]pyridine-2,3-diamine] are less than 200 nM, less than 200 nM and 500 to 2000 nM.
Turning to `Cc1cc(C)cc(-c2nccc3c(Nc4ccc(F)c(Cl)c4)c(N)oc23)c1` [Compound 277, N^3-(3-Chloro-4-fluorophenyl)-7-(3,5-dimethylphenyl)furo[2,3-c]pyridine-2,3-diamine], the IC50 in test [1] is less than 200 nM; in test [2], less than 200 nM; in test [3] it was 500 to 2000 nM.
Regarding `Nc1oc2c(-c3cc(F)cc(F)c3)nccc2c1Nc1ccc(F)c(Cl)c1` [Compound 278, N^3-(3-Chloro-4-fluorophenyl)-7-(3,5-difluorophenyl)furo[2,3-c]pyridine-2,3-diamine], the values for the IC50 in test [1], in test [2] and in test [3] were less than 200 nM, less than 200 nM and 500 to 2000 nM, respectively.
For the compound `CCOC(=O)Nc1oc2c(-c3ccnc(C)c3)nccc2c1N(C(=O)OCC)c1ccc(F)c(F)c1` [Compound 279, Ethyl (3,4-difluorophenyl)(2-((ethoxycarbonyl)amino)-7-(2-methylpyridin-4-yl)furo[2,3-c]pyridin-3-yl)carbamate], the IC50 in test [1] was more than 1000 nM; in test [2], more than 1000 nM; in test [3], more than 2000 nM.
With `Nc1oc2c(/C=C/c3ccccc3)nccc2c1Nc1ccc(F)c(Cl)c1` [Compound 280, N^3-(3-Chloro-4-fluorophenyl)-7-styrylfuro[2,3-c]pyridine-2,3-diamine], the IC50 in test [1] is less than 200 nM; in test [2], less than 200 nM; in test [3], 500 to 2000 nM.
